Where two headings read alike, the source gives them in different places.
How the values were obtained:
HIV = test: microbe, parasite or virus in culture; format: cell-based, HIV-1
in vitro = conditions: human, CC50 (nM)
A549 cells = conditions: human, 2 days
[1] = Cytotoxicity evaluation using the SRB assay; conditions: human, triplicate
SARS-CoV-2 [2] = tested on: SARS-CoV-2
SARS-CoV-2 [3] = test: microbe, parasite or virus in culture; conditions: Severe acute respiratory syndrome coronavirus 2, 48 h, read-out: EC50 (2000 nM) SARS-COV-2, % inhibitory effect at 2000 nM against SARS-CoV-2; triplicate
AIV = test: microbe, parasite or virus in culture; format: cell-based, avian influenza virus (H5N1); conditions: Influenza A virus, read-out: EC50 (nM) AIV
VSV = test: microbe, parasite or virus in culture; format: cell-based; conditions: Vesicular stomatitis virus, read-out: EC50 (nM) VSV
[4] = CC50 (nM), Table 1, inhibition of cell growth of host A549 cells by 50%
[5] = CC50 (nM) A549, Table 2, host A549 cells
[6] = A549 cells, CC50 (nM), Table 1, inhibition of cell growth of host A549 cells by 50%

**Q.** Which EC50 (HIV) does the source give for `COc1cc2c(OC3OCC(O)(CO)C3O)c3c(c(-c4cc5c(cc4O)OCO5)c2cc1OC)C(=O)OC3` (single isomer, unassigned) [Compound 45] here?
**A.** 2730 nM

**Q.** What about the “antiviral activity of R atropisomer versus corresponding S atropisomer” value (HIV) of the same compound?
**A.** much more potent antiviral activities

**Q.** And the CC50 at 2 days (in vitro)?
**A.** 46800 nM

**Q.** Which results are given for `COc1cc2c(OC3OCC(O)(CO)C3O)c3c(c(-c4cc5c(cc4O)OCO5)c2cc1OC)C(=O)OC3` (single isomer, unassigned) [Compound 46]?
**A.** EC50 (HIV): 48600 nM; CC50 (A549 cells): > 50000 nM

**Q.** For `COc1cc2c(OC3OCC(O)(CO)C3O)c3c(c(-c4cc5c(cc4O)OCO5)c2cc1OC)C(=O)OC3` (single isomer, unassigned) [Compound 47], which EC50 (HIV) is on record?
**A.** > 25000 nM

**Q.** And the CC50 (A549 cells)?
**A.** > 25000 nM

**Q.** For `COc1cc2c(OC3OCC(O)(CO)C3OC3OCC(O)C(O)C3O)c3c(c(-c4cc5c(cc4O)OCO5)c2cc1OC)C(=O)OC3` (single isomer, unassigned) [Compound 49], which EC50 (HIV) is on record?
**A.** 5450 nM

**Q.** And the “antiviral activity of R atropisomer versus corresponding S atropisomer” value (HIV)?
**A.** much more potent antiviral activities

**Q.** What about the CC50 at 2 days (in vitro) of the same compound?
**A.** 23500 nM

**Q.** What does the source list for `COc1cc2c(OC3OCC(O)(COC4OCC(O)C(O)C4O)C3OC3OCC(O)C(O)C3O)c3c(c(-c4cc5c(cc4O)OCO5)c2cc1OC)C(=O)OC3` (single isomer, unassigned) [Compound 51]?
**A.** antiviral activity of R atropisomer versus corresponding S atropisomer (HIV): much more potent antiviral activities; EC50 (HIV; Human immunodeficiency virus 1): 15700 nM; CC50 at 2 days [1, 4]: > 25000 nM

**Q.** For `COc1cc2c(OC3OCC(O)(COC4OCC(O)C(O)C4O)C3OC3OCC(O)C(OC4OCC(O)(CO)C4O)C3O)c3c(c(-c4cc5c(cc4O)OCO5)c2cc1OC)C(=O)OC3` (single isomer, unassigned) [Compound 53], which “antiviral activity of R atropisomer versus corresponding S atropisomer” value (HIV) is on record?
**A.** much more potent antiviral activities

**Q.** What about the EC50 (HIV; Human immunodeficiency virus 1) of the same compound?
**A.** 14700 nM

**Q.** And the CC50 at 2 days (in vitro)?
**A.** > 25000 nM

**Q.** For `COc1cc2c(O[C@@H]3OC[C@@]4(CO)OC(C)(C)O[C@@H]34)c3c(c(-c4ccc5c(c4)OCO5)c2cc1OC)C(=O)OC3` [Compound 9], which EC50 (HIV; Human immunodeficiency virus 1) is on record?
**A.** 34.6 nM

**Q.** What about the “activity against SARS-CoV-2 (conclusion)” value (SARS-CoV-2 [2]) of the same compound?
**A.** active molecules

**Q.** And the inhibition at 2 µM (SARS-CoV-2 [3])?
**A.** > 80%

**Q.** And the CC50 at 2 days [1, 4]?
**A.** 1180 nM

**Q.** Which EC50 (HIV; Human immunodeficiency virus 1) does the source give for `COc1cc2c(O[C@H]3OC[C@@]4(CO)OC(C)(C)O[C@@H]34)c3c(c(-c4ccc5c(c4)OCO5)c2cc1OC)C(=O)OC3` [Compound 10] here?
**A.** 0.97 nM

**Q.** What about the EC50 (AIV) of the same compound?
**A.** 0.75 nM

**Q.** What about the EC50 (VSV) of the same compound?
**A.** 1.5 nM

**Q.** What about the inhibition at 2 µM (SARS-CoV-2 [3]) of the same compound?
**A.** 95.6%

**Q.** What about the CC50 at 2 days [1, 5] of the same compound?
**A.** 400 nM

**Q.** What about the CC50 at 2 days [1, 4] of the same compound?
**A.** 188 nM

**Q.** What does the source list for `COc1cc2c(O[C@@H]3OC[C@@]4(COC(C)=O)OC(C)(C)O[C@@H]34)c3c(c(-c4ccc5c(c4)OCO5)c2cc1OC)C(=O)OC3` [Compound 11]?
**A.** EC50 (HIV; Human immunodeficiency virus 1): 208 nM; activity against SARS-CoV-2 (conclusion) (SARS-CoV-2 [2]): active molecules; inhibition at 2 µM (SARS-CoV-2 [3]): > 80%; CC50 at 2 days [1, 4]: 1260 nM

**Q.** Which EC50 (HIV; Human immunodeficiency virus 1) does the source give for `COc1cc2c(O[C@H]3OC[C@@]4(COC(C)=O)OC(C)(C)O[C@@H]34)c3c(c(-c4ccc5c(c4)OCO5)c2cc1OC)C(=O)OC3` [Compound 12] here?
**A.** 26.9 nM

**Q.** And the “activity against SARS-CoV-2 (conclusion)” value (SARS-CoV-2 [2])?
**A.** active molecules

**Q.** And the inhibition at 2 µM (SARS-CoV-2 [3])?
**A.** 96.3%

**Q.** What about the CC50 at 2 days [1, 4] of the same compound?
**A.** 472 nM

**Q.** For `COc1cc2c(OC3OC[C@@]4(CO[Si](c5ccccc5)(c5ccccc5)C(C)(C)C)OC(c5ccccc5)O[C@@H]34)c3c(c(-c4ccc5c(c4)OCO5)c2cc1OC)C(=O)OC3` (some centres unmarked) [Compound 16], which EC50 (HIV; Human immunodeficiency virus 1) is on record?
**A.** 6580 nM

**Q.** And the inhibition at 2 µM (SARS-CoV-2 [3])?
**A.** 32.4%

**Q.** What about the CC50 at 2 days [1, 6] of the same compound?
**A.** > 20000 nM

**Q.** With `COc1cc2c(O[C@@H]3OC[C@@]4(CO)OC(c5ccccc5)O[C@@H]34)c3c(c(-c4ccc5c(c4)OCO5)c2cc1OC)C(=O)OC3` (some centres unmarked) [Compound 17] as the compound, how does the EC50 (HIV; Human immunodeficiency virus 1) read?
**A.** 251 nM

**Q.** What about the inhibition at 2 µM (SARS-CoV-2 [3]) of the same compound?
**A.** 66.2%

**Q.** What about the CC50 at 2 days [1, 6] of the same compound?
**A.** 2240 nM

**Q.** What does the source list for `COc1cc2c(O[C@H]3OC[C@@]4(CO)OC(c5ccccc5)O[C@@H]34)c3c(c(-c4ccc5c(c4)OCO5)c2cc1OC)C(=O)OC3` (some centres unmarked) [Compound 18]?
**A.** EC50 (HIV; Human immunodeficiency virus 1): 7.37 nM; EC50 (AIV): 0.71 nM; EC50 (VSV): 2.43 nM; inhibition at 2 µM (SARS-CoV-2 [3]): 98.3%; CC50 at 2 days ([1]; A549 cells, CC50 (nM) A549, Table 2, host A549 cells): 208 nM; CC50 at 2 days [1, 6]: 184 nM

**Q.** What does the source list for `COc1cc2c(O[C@H]3OC[C@](O)(CO)[C@H]3O)c3c(c(-c4ccc5c(c4)OCO5)c2cc1OC)C(=O)OC3` [Compound 19]?
**A.** EC50 (HIV; Human immunodeficiency virus 1): 11.9 nM; EC50 (AIV): 70 nM; EC50 (VSV): 144 nM; inhibition at 2 µM (SARS-CoV-2 [3]): 98.3%; CC50 at 2 days [1, 5]: 2100 nM; CC50 at 2 days [1, 4]: 368 nM

**Q.** Which EC50 (HIV; Human immunodeficiency virus 1) does the source give for `COc1cc2c(O[C@@H]3OC[C@@]4(COC(C)=O)OC(c5ccccc5)O[C@@H]34)c3c(c(-c4ccc5c(c4)OCO5)c2cc1OC)C(=O)OC3` (some centres unmarked) [Compound 20] here?
**A.** 280 nM

**Q.** What about the EC50 (AIV) of the same compound?
**A.** 39.9 nM

**Q.** And the EC50 (VSV)?
**A.** 53.8 nM

**Q.** What about the “activity against SARS-CoV-2 (conclusion)” value (SARS-CoV-2 [2]) of the same compound?
**A.** active molecules

**Q.** What about the inhibition at 2 µM (SARS-CoV-2 [3]) of the same compound?
**A.** > 80%

**Q.** And the CC50 at 2 days [1, 5]?
**A.** 1570 nM

**Q.** What about the CC50 at 2 days [1, 4] of the same compound?
**A.** 2580 nM

Reference: patent US20240076299A1, “TUBERCULATIN ANALOGS AS ANTIVIRAL AGENTS” (priority 2020, published 2024)
